Experimental data from patent publication US20260199483A1 (Bright Angel Therapeutics Inc., priority 2022, published 2026).

What follows are compounds tested against T1, purified recombinant Yck2 (Candida albicans, UniProt A0A1D8PKB4) (assay: HotSpot kinase assay).
T1 construct: Yck2 residues 37-345 were PCR amplified from C. albicans genomic DNA; His6 (N); TEV protease site (N); made in house; host or cells: E. coli BL21(DE3)-Gold
Assay type: biochemical, C. albicans
Protocol: IC50s were determined using the in vitro HotSpot kinase assay (purified enzymes, ^33P-ATP, an appropriate substrate and 1 μM ATP). For enzyme inhibition assays, compounds were tested in range of ten concentrations from 10 uM to 0.0005 uM using purified recombinant Yck2. Reaction conditions were 1 uM ATP, one hour incubation with inhibitor, and kinase activity detected using 33-ATP phosphorylation of an appropriately selected peptide substrate.
Yck2 residues 37-345 were PCR amplified from C. albicans genomic DNA and subcloned into the vector pMCSG53, which codes for a N-terminal His6 tag, TEV protease site, followed by the Yck2 protein. E. coli BL21(DE3)-Gold competent cells were transformed with this plasmid and the Yck2 protein was purified using methodology previously described (Stogios et al., ACS Chem. Biol. 13, 1322-1332 (2018)).

T1 sequence (A0A1D8PKB4 entry or part of it): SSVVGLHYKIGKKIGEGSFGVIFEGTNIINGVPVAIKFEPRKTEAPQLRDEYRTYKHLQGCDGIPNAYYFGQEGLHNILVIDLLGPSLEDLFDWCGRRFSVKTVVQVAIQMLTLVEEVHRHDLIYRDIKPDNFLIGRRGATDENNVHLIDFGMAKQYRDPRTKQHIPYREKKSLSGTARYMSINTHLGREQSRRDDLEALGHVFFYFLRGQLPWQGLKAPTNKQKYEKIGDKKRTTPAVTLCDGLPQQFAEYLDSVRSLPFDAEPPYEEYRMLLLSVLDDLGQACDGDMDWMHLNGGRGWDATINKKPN

SMILES | IC50
Cn1cc(-c2ccnc3c2C(=O)N(CC2CCN(C[C@@](O)(Cn4cncn4)c4ccc(F)cc4F)CC2)C3)c(-c2ccc(F)cc2)n1 [Compound I-237, (R)-6-((1-(2-(2,4-difluorophenyl)-2-hydroxy-3-(1H-1,2,4-triazol-1-yl)propyl)piperidin-4-yl)methyl)-4-(3-(4-fluorophenyl)-1-methyl-1H-pyrazol-4-yl)-6,7-dihydro-5H-pyrrolo[3,4-b]pyridin-5-one] | 1.14 nM
Nc1nccc(-c2c(-c3ccc(F)cc3)ncn2C2CCN(CCC(=O)NC3CCN(CC(O)(Cn4cncn4)c4ccc(F)cc4F)CC3)CC2)n1 (centres unmarked) [Compound I-234, 3-(4-(5-(2-aminopyrimidin-4-yl)-4-(4-fluorophenyl)-1H-imidazol-1-yl)piperidin-1-yl)-N-(1-(2-(2,4-difluorophenyl)-2-hydroxy-3-(1H-1,2,4-triazol-1-yl)propyl)piperidin-4-yl)propanamide] | 8.12 nM
OC(CNCc1ccc2c(-c3ccncc3)c(-c3ccc(F)cc3)nn2c1)(Cn1cncn1)c1ccc(F)cc1F (centres unmarked) [Compound I-152, 2-(2,4-difluorophenyl)-1-(((2-(4-fluorophenyl)-3-(pyridin-4-yl)pyrazolo[1,5-a]pyridin-6-yl)methyl)amino)-3-(1H-1,2,4-triazol-1-yl)propan-2-ol] | 3.37 nM
Cn1cc(-c2ccncc2CNCCC(O)(Cn2cncn2)c2ccc(F)cc2F)c(-c2ccc(F)cc2)n1 (centres unmarked) [Compound I-3, 2-(2,4-difluorophenyl)-4-(((4-(3-(4-fluorophenyl)-1-methyl-1H-pyrazol-4-yl)pyridin-3-yl)methyl)amino)-1-(1H-1,2,4-triazol-1-yl)butan-2-ol] | 179 nM
Nc1nccc(-c2c(-c3ccc(F)cc3)ncn2C2CCN(C[C@](O)(Cn3cncn3)c3ccc(F)cc3F)CC2)n1 (single isomer, unassigned) [Compound I-33] | 12.3 nM
Nc1nccc(-c2c(-c3ccc(F)cc3)ncn2C2CCN(CC(O)(Cn3ccnn3)c3ccc(F)cc3F)CC2)n1 (centres unmarked) [Compound I-35, 1-(4-(5-(2-aminopyrimidin-4-yl)-4-(4-fluorophenyl)-1H-imidazol-1-yl)piperidin-1-yl)-2-(2,4-difluorophenyl)-3-(1H-1,2,3-triazol-1-yl)propan-2-ol] | 6.8 nM
Nc1nccc(-c2c(-c3ccc(F)cc3)ncn2C2CCN(CC[C@](O)(Cn3cncn3)c3ccc(F)cc3F)CC2)n1 [Compound I-53, (R)-4-(4-(5-(2-aminopyrimidin-4-yl)-4-(4-fluorophenyl)-1H-imidazol-1-yl)piperidin-1-yl)-2-(2,4-difluorophenyl)-1-(1H-1,2,4-triazol-1-yl)butan-2-ol] | 9.52 nM
Cn1cc(-c2ccncc2COCC[C@](O)(Cn2cncn2)c2ccc(F)cc2F)c(-c2ccc(F)cc2)n1 [Compound I-235, (R)-2-(2,4-difluorophenyl)-4-((4-(3-(4-fluorophenyl)-1-methyl-1H-pyrazol-4-yl)pyridin-3-yl)methoxy)-1-(1H-1,2,4-triazol-1-yl)butan-2-ol] | 107 nM
Cn1cc(-c2ccnc3c2C(=O)N(CCC2CCN(C[C@](O)(Cn4cncn4)c4ccc(F)cc4F)CC2)C3)c(-c2ccc(F)cc2)n1 (single isomer, unassigned) [Compound I-248] | 4.69 nM
Cn1cc(-c2ccnc3c2C(=O)N(CC(O)(Cn2cncn2)c2ccc(F)cc2F)C3)c(-c2ccc(F)cc2)n1 (centres unmarked) [Compound I-6, 6-(2-(2,4-difluorophenyl)-2-hydroxy-3-(1H-1,2,4-triazol-1-yl)propyl)-4-(3-(4-fluorophenyl)-1-methyl-1H-pyrazol-4-yl)-6,7-dihydro-5H-pyrrolo[3,4-b]pyridin-5-one] | 72.7 nM
OC(CN1CCC(NCc2ccc3c(-c4ccncc4)c(-c4ccc(F)cc4)nn3c2)CC1)(Cn1cncn1)c1ccc(F)cc1F (centres unmarked) [Compound I-254, 2-(2,4-difluorophenyl)-1-(4-(((2-(4-fluorophenyl)-3-(pyridin-4-yl)pyrazolo[1,5-a]pyridin-6-yl)methyl)amino)piperidin-1-yl)-3-(1H-1,2,4-triazol-1-yl)propan-2-ol] | 3.09 nM
Cn1cc(-c2ccncc2COCCC(O)(Cn2cncn2)c2ccc(F)cc2F)c(-c2ccc(F)cc2)n1 (centres unmarked) [Compound I-233, 2-(2,4-difluorophenyl)-4-((4-(3-(4-fluorophenyl)-1-methyl-1H-pyrazol-4-yl)pyridin-3-yl)methoxy)-1-(1H-1,2,4-triazol-1-yl)butan-2-ol] | 65.9 nM
O=C(NCC(O)(Cn1cncn1)c1ccc(F)cc1F)c1cccc2c(-c3ccncc3)c(-c3ccc(F)cc3)nn12 (centres unmarked) [Compound I-151, N-(2-(2,4-difluorophenyl)-2-hydroxy-3-(1H-1,2,4-triazol-1-yl)propyl)-2-(4-fluorophenyl)-3-(pyridin-4-yl)pyrazolo[1,5-a]pyridine-7-carboxamide] | 765 nM
O[C@](CNCc1ccc2c(-c3ccncc3)c(-c3ccc(F)cc3)nn2c1)(Cn1cncn1)c1ccc(F)cc1F [Compound I-252, (R)-2-(2,4-difluorophenyl)-1-(((2-(4-fluorophenyl)-3-(pyridin-4-yl)pyrazolo[1,5-a]pyridin-6-yl)methyl)amino)-3-(1H-1,2,4-triazol-1-yl)propan-2-ol] | 2.07 nM
Nc1nccc(-c2c(-c3ccc(F)cc3)ncn2C2CCN(CC(=O)NCC(O)(Cn3cncn3)c3ccc(F)cc3F)CC2)n1 (centres unmarked) [Compound I-71, 2-(4-(5-(2-aminopyrimidin-4-yl)-4-(4-fluorophenyl)-1H-imidazol-1-yl)piperidin-1-yl)-N-(2-(2,4-difluorophenyl)-2-hydroxy-3-(1H-1,2,4-triazol-1-yl)propyl)acetamide] | 9.33 nM
Nc1nccc(-c2c(-c3ccc(F)cc3)ncn2C2CCN(C(=O)CCNCC(O)(Cn3cncn3)c3ccc(F)cc3F)CC2)n1 (centres unmarked) [Compound I-77, 1-(4-(5-(2-aminopyrimidin-4-yl)-4-(4-fluorophenyl)-1H-imidazol-1-yl)piperidin-1-yl)-3-((2-(2,4-difluorophenyl)-2-hydroxy-3-(1H-1,2,4-triazol-1-yl)propyl)amino)propan-1-one] | 0.4 nM
Cn1cc(-c2ccncc2CNCC(O)(Cn2cncn2)c2ccc(F)cc2F)c(-c2ccc(F)cc2)n1 (centres unmarked) [Compound I-5, 2-(2,4-difluorophenyl)-1-(((4-(3-(4-fluorophenyl)-1-methyl-1H-pyrazol-4-yl)pyridin-3-yl)methyl)amino)-3-(1H-1,2,4-triazol-1-yl)propan-2-ol] | 335 nM
CN1Cc2nccc(-c3cn(CCC(O)(Cn4cncn4)c4ccc(F)cc4F)nc3-c3ccc(F)cc3)c2C1=O (centres unmarked) [Compound I-2, 4-(1-(3-(2,4-difluorophenyl)-3-hydroxy-4-(1H-1,2,4-triazol-1-yl)butyl)-3-(4-fluorophenyl)-1H-pyrazol-4-yl)-6-methyl-6,7-dihydro-5H-pyrrolo[3,4-b]pyridin-5-one] | 107 nM
Cn1cc(-c2ccnc3c2C(=O)N(CC(O)(Cn2ccnc2)c2ccc(F)cc2F)C3)c(-c2ccc(F)cc2)n1 (centres unmarked) [Compound I-1, 6-(2-(2,4-difluorophenyl)-2-hydroxy-3-(1H-imidazol-1-yl)propyl)-4-(3-(4-fluorophenyl)-1-methyl-1H-pyrazol-4-yl)-6,7-dihydro-5H-pyrrolo[3,4-b]pyridin-5-one] | 46.3 nM
Nc1nccc(-c2c(-c3ccc(F)cc3)ncn2C2CCN(CC[C@@](O)(Cn3cncn3)c3ccc(F)cc3F)CC2)n1 [Compound I-55, (S)-4-(4-(5-(2-aminopyrimidin-4-yl)-4-(4-fluorophenyl)-1H-imidazol-1-yl)piperidin-1-yl)-2-(2,4-difluorophenyl)-1-(1H-1,2,4-triazol-1-yl)butan-2-ol] | 8.41 nM
